Measurements from patent US20230000813A1, “COMPOUND FOR THE TREATMENT OF BOVINE OR SWINE RESPIRATORY DISEASE” (Intervet Inc., priority 2016, published 2023).
In brackets after ≈: the same amount, converted by molar mass. Several values for one entry are separate records, joined by “and”; a condition that tells them apart may be missing. Equal entries are not always repeated.

Key:
[1] = tested on: 20 isolates of Actinobacillus (A.) pleuropneumoniae; experiment: MIC50/MIC90, broth-microdilution, European respiratory tract isolates; format: cell-based
Description: (§1) The in vitro activity of compounds against 20 isolates of Actinobacillus (A.) pleuropneumoniae, 20 of Bordetella (B.) bronchiseptica, 20 of Histophilus (H.) somni, 40 of Mannheimia (M.) haemolytica and 40 of Pasteurella (P.) multocida collected in different European countries were determined. All bacteria were isolated from the respiratory tract of swine and cattle suffering from respiratory disease. All isolates were epidemiologically unrelated as specified by the different suppliers.
(§2) The minimum inhibitory concentrations (MIC) of compounds according to the invention were determined by the broth-microdilution method according to CLSI document VET01-A4.
(§3) Microdilution trays containing a doubling dilution series of the test compounds were used for the tests.
(§4) The MIC results were interpreted according to the CLSI documents VET01-S3. The lowest concentration of compound at which no visible growth (i.e. no turbidity) detected by the unaided eye was recorded as the MIC.

[2] = tested on: 20 isolates of Bordetella (B.) bronchiseptica; experiment: as above; format: cell-based
Description: as §1, §2, §3, §4

[3] = tested on: 20 isolates of Histophilus (H.) somni; experiment: as above; format: cell-based
Description: as §1, §2, §3, §4

[4] = tested on: 40 isolates of Mannheimia (M.) haemolytica; experiment: as above; format: cell-based
Description: as §1, §2, §3, §4

[5] = tested on: 15 isolates of H. parasuis; experiment: MIC50/MIC90, agar-dilution method (GC agar base); format: cell-based; conditions: Haemophilus parasuis
Description: The in vitro activity of 3 representative compounds of this invention against 15 isolates of H. parasuis was determined. All strains were isolated from the respiratory tract of swine in different European countries The MICs for all isolates were determined by using the agar-dilution method according to CLSI document VET01-A4 [1]with the following modification: GC agar base was used instead of Mueller-Hinton agar base for the preparation of the agar-dilution plates. Results were interpreted according to the CLSI document VET01-S3.

[6] = Plasma and tissue concentrations and pharmacokinetics in infected calves (Example 8); format: in vivo, Holstein black pied cattle calves
Description: Three animals each were treated one hour after infection by subcutaneous (SC) administration of Compound 329 in an aqueous 30% (w/v) Captisol® solution for injection at a dose of 10 mg/kg BW.
Food consumption was measured. Single individual blood samples were collected from the 12 animals at the following time points: D-1 (predose), 30 minutes, 2, 4, 6, 24 h and at D2 (ca. 45 h) after administration. After the day 2 blood sampling, the infected cattle were slaughtered. The lungs were weighted. Lung states and lung scores were observed morphologically.
At necropsy from animals treated with test items or the positive control, samples of epithelial lining fluid (ELF), lung tissue, and additionally tissue of liver and kidney were collected. From each lung two bacteriological swaps were taken from the left and right bronchus.
Epithelial lining fluid was collected by inserting sterile paper strips caudally behind the tracheal bifurcation directly onto the bronchial mucous membrane in the left and right bronchus and allowed to moisten with bronchial fluid. The paper strip was left in place (resting on the bronchial mucosa) for approximately 1 minute before being placed back into the plastic container.
From each lung two tissue samples were collected by clipping from at least two locations, one from morphologically unchanged tissue, one from the edge of pathomorphologically changed areas.
Plasma, ELF, lung tissue and additional tissue samples were analyzed for concentrations of Compound 329 and Enrofloxacin/Ciprofloxacin respectively using a HPLC-MS/MS method.
An analysis of the measured plasma concentrations of C.

[7] = Plasma and tissue concentrations in infected calves (Example 10); format: in vivo, cattle calves; conditions: individual animals and mean; for Concentration, Plasma 0 h: predose
[8] = tested on: naturally occurring bovine respiratory disease (BRD); experiment: Treatment of naturally occurring bovine respiratory disease under U.S. feedlot conditions (Example 11); format: in vivo, weaned beef cattle calves
Text: The effectiveness and safety of compound 329 for the treatment of naturally occurring bovine respiratory disease (BRD) under typical U.S. feedlot conditions when administered subcutaneously was investigated. The therapeutic efficacy of the two antibacterials was compared to a negative control group (sterile saline) and a positive control group (Nuflor® Injectable Solution).
Weaned beef cattle calves (crossbreds of Angus, Charolais and Limousin) were enrolled in the study and were allocated to groups of 20 animals per treatment group. Calves were enrolled in the study with body weights that ranged from 123 to 262 kg.
The bovine respiratory disease observed in this 10-day natural infection study was moderate to severe across the treatment groups and typical of that observed in commercial feed yards in the U.S.
Animals were dosed subcutaneously once on the day of enrollment (Day 0) with compound 329 or the control groups. Compound 329 was dosed at 10 mg/kg body weight. Nuflor® was dosed at 40 mg/kg body weight. Sterile saline was dosed at 2 mL/15 kg body weight.

[9] = SC single 10 mg/kg in 30% Captisol, individual animals and mean, 10 mg/kg
[10] = plasma, SC 10 mg/kg, mean, Phoenix WinNonlin
[11] = SC single 5 mg/kg (35% Cavitron), listed as C. 239, 5 mg/kg
[12] = SC single 10 mg/kg (C 231 in 10% Poloxamer 188; C 329 in 35% Cavitron), 10 mg/kg
[13] = D 0 to D 10, 20 calves per group, C. 329 10 mg/kg, Nuflor 40 mg/kg SC once
[14] = natural BRD, 20 calves per group, SC once on Day 0: C. 329 10 mg/kg, Nuflor 40 mg/kg
[15] = natural BRD, calves removed before D 10 included, C. 329 10 mg/kg, Nuflor 40 mg/kg SC once

## CC(C)(N)C(NC(=O)c1ccc(C#Cc2ccc(CNC3CC3)cc2)cc1)C(=O)NO (centres unmarked) [C. 329]
[1]
  MIC50: 0.5 µg/mL (≈ 1.19 µM)
  MIC90: 0.5 µg/mL (≈ 1.19 µM)
[2]
  MIC50: 2 µg/mL (≈ 4.76 µM)
  MIC90: 4 µg/mL (≈ 9.51 µM)
[3]
  MIC50: 0.25 µg/mL (≈ 0.595 µM)
  MIC90: 0.25 µg/mL (≈ 0.595 µM)
[4]
  MIC50: 0.5 µg/mL (≈ 1.19 µM)
  MIC90: 1 µg/mL (≈ 2.38 µM)
[5]
  MIC50: 2 µg/mL (≈ 4.76 µM)
  MIC90: 4 µg/mL (≈ 9.51 µM)
[6]; SC 10 mg/kg, compared with plasma, in words
  compound concentrations in the tissue samples: above the plasma concentration
[6]; SC 10 mg/kg, in words
  detection in plasma and section tissue samples: detected at high concentrations
[6]; [9]
  Concentration, Plasma 0.5 h: 2340 ng/mL and 1520 ng/mL and 1280 ng/mL
  Concentration, Plasma 2 h: 1930 ng/mL and 1410 ng/mL and 2330 ng/mL
  Concentration, Plasma 4 h: 1200 ng/mL and 856 ng/mL and 1310 ng/mL
  Concentration, Plasma 6 h: 692 ng/mL and 928 ng/mL and 718 ng/mL
  Concentration, Plasma 24 h: 146 ng/mL and 187 ng/mL and 176 ng/mL
  Concentration, Plasma 48 h: 60.5 ng/mL and 57.4 ng/mL and 85.2 ng/mL
  Concentration, Tissue (48 h) Kidney: 22800 ng/mL and 25500 ng/mL and 17100 ng/mL
  Concentration, Tissue (48 h) Liver: 7760 ng/mL and 7850 ng/mL and 5130 ng/mL
  Concentration, Tissue (48 h) Lung: 8290 ng/mL and 9410 ng/mL and 7570 ng/mL
[6]; epithelial lining fluid, SC single 10 mg/kg in 30% Captisol, individual animals and mean, 10 mg/kg
  Concentration, Tissue (48 h) ELF: 320 ng/mL and 356 ng/mL and 1370 ng/mL
[6]; [10]
  AUClast: 19434 ng·h/mL
  Cmax: 2063 ng/mL
  HL_Lambda_z (Half life time): 11.1 h
  MRTlast (Mean retention time till last measured value): 9.7 h
  Tmax: 1.0 h
  Vz_F_obs: 7.8 L/kg
[7]; [11]
  Concentration, Plasma 0.5 h: 1140 ng/mL and 830 ng/mL and 945 ng/mL
  Concentration, Plasma 2 h: 327 ng/mL and 326 ng/mL and 221 ng/mL
  Concentration, Plasma 4 h: 146 ng/mL and 210 ng/mL and 130 ng/mL
  Concentration, Plasma 6 h: 110 ng/mL and 156 ng/mL and 78.7 ng/mL
  Concentration, Plasma 24 h: 32.2 ng/mL and 35.1 ng/mL and 22.8 ng/mL
  Concentration, Plasma 48 h: 16.1 ng/mL and 18.2 ng/mL and 12.8 ng/mL
  Concentration, Tissue (48 h) ELF: 91.8 ng/mL and 214 ng/mL and 324 ng/mL
  Concentration, Tissue (48 h) Kidney: 8890 ng/mL and 3990 ng/mL and 4940 ng/mL
  Concentration, Tissue (48 h) Liver: 2060 ng/mL and 1550 ng/mL and 1740 ng/mL
  Concentration, Tissue (48 h) Lung: 1560 ng/mL and 1320 ng/mL and 1360 ng/mL
  Concentration, Tissue (48 h) Muscle: 53.3 ng/mL and 45.7 ng/mL and 54.4 ng/mL
[7]; [12]
  Concentration, Plasma 0.5 h: 1160 ng/mL and 1610 ng/mL and 1400 ng/mL
  Concentration, Plasma 2 h: 476 ng/mL and 439 ng/mL and 550 ng/mL
  Concentration, Plasma 4 h: 310 ng/mL and 267 ng/mL and 282 ng/mL
  Concentration, Plasma 6 h: 210 ng/mL and 172 ng/mL and 174 ng/mL
  Concentration, Plasma 24 h: 69.1 ng/mL and 42.9 ng/mL and 57.5 ng/mL
  Concentration, Plasma 48 h: 49.3 ng/mL and 38.5 ng/mL and 32.4 ng/mL
  Concentration, Tissue (48 h) ELF: 1090 ng/mL and 372 ng/mL and 250 ng/mL
  Concentration, Tissue (48 h) Kidney: 6570 ng/mL and 20800 ng/mL and 4620 ng/mL
  Concentration, Tissue (48 h) Liver: 3930 ng/mL and 3650 ng/mL and 2730 ng/mL
  Concentration, Tissue (48 h) Lung: 2780 ng/mL and 3370 ng/mL and 2790 ng/mL
  Concentration, Tissue (48 h) Muscle: 75.3 ng/mL and 68.5 ng/mL and 85.9 ng/mL
[7]; SC single 5 mg/kg (35% Cavitron)
  Concentration, Plasma 0 h: BLQ
[7]; SC single 10 mg/kg (C 231 in 10% Poloxamer 188; C 329 in 35% Cavitron)
  Concentration, Plasma 0 h: BLQ
[8]; 10 mg/kg SC once, compared to saline and Nuflor, conclusion in words
  Efficacy in a field like setting, naturally occurring BRD: demonstrated
[8]; 10-day natural BRD study, C. 329 10 mg/kg, Nuflor 40 mg/kg SC once
  Mortalities during the study: 5%
[8]; [13]
  Removals from the study, Percentage: 5%
  Removals from the study, Total: 1
[8]; [14]
  Removals from the study, D 0: 0
  Removals from the study, D 1: 0
  Removals from the study, D 2: 0
  Removals from the study, D 3: 0
  Removals from the study, D 4: 0
  Removals from the study, D 5: 0
  Removals from the study, D 6: 0
  Removals from the study, D 7: 0
  Removals from the study, D 8: 0
  Removals from the study, D 9: 1
  Removals from the study, D 10: 0
[8]; natural BRD, day of enrollment, C. 329 10 mg/kg, Nuflor 40 mg/kg SC once
  Average Body weight on D 0: 401.2 lb
[8]; [15]
  Average Body weight on last day in study: 406.3 lb
  Average daily body weight gain: 0.5 lb
[8]; natural BRD, in words
  daily body weight gains over the study period: positive daily body weight gains
